Experimental data as given in ChEMBL document CHEMBL1132087, “New N-substituted 7-aminocephalosporanic acid derivatives as potential agents against Streptococcus pneumoniae. Synthesis and in vitro activity” (1999).
In brackets after ≈: the same amount, converted by molar mass.

Legend:
Assay type in all cases: functional
Streptococcus pneumoniae [1] = assay: In vitro antibacterial activity against the gram-positive bacteria, penicillin sensitive Streptococcus pneumoniae (3512)
Staphylococcus aureus [2] = assay: In vitro antibacterial activity against the gram-positive bacteria, penicillin sensitive Staphylococcus aureus (663E)
Staphylococcus aureus [3] = assay: In vitro antibacterial activity against the gram-positive bacteria, penicillin resistant Staphylococcus aureus (2672)
Streptococcus pneumoniae [4] = assay: In vitro antibacterial activity against the gram-positive bacteria, penicillin resistant Streptococcus pneumoniae (4635)
Staphylococcus aureus [5] = assay: In vitro antibacterial activity against the gram-positive bacteria, penicillin resistant Staphylococcus aureus (853)
Streptococcus pyogenes = assay: In vitro antibacterial activity against the gram-positive bacteria, erythromycin resistant Streptococcus pyogenes
Streptococcus pneumoniae [6] = assay: In vitro antibacterial activity against the gram-positive bacteria, penicillin resistant Streptococcus pneumoniae (4629)
Streptococcus pneumoniae [7] = assay: In vitro antibacterial activity against the gram-positive bacteria, penicillin resistant Streptococcus pneumoniae (4630)
Staphylococcus aureus [8] = assay: In vitro antibacterial activity against the gram-positive bacteria, penicillin sensitive Staphylococcus aureus (3849)
Staphylococcus aureus [9] = assay: In vitro antibacterial activity against the gram-positive bacteria, penicillin sensitive Staphylococcus aureus (3072)
Streptococcus pneumoniae [10] = assay: In vitro antibacterial activity against the gram-positive bacteria, penicillin sensitive Streptococcus pneumoniae (3273)
Streptococcus pneumoniae [11] = assay: In vitro antibacterial activity against the gram-positive bacteria, penicillin sensitive Streptococcus pneumoniae (3272)
Staphylococcus aureus [12] = assay: In vitro antibacterial activity against the gram-positive bacteria, penicillin resistant Staphylococcus aureus (2619)
Streptococcus pneumoniae [13] = assay: In vitro antibacterial activity against the gram-positive bacteria, penicillin resistant Streptococcus pneumoniae (4636)

Row | SMILES | MIC (Streptococcus pneumoniae [1]) [µg/mL] | MIC (Staphylococcus aureus [2]) [µg/mL] | MIC (Staphylococcus aureus [3]) [µg/mL] | MIC (Streptococcus pneumoniae [4]) [µg/mL] | MIC (Staphylococcus aureus [5]) [µg/mL] | MIC (Streptococcus pyogenes) [µg/mL] | MIC (Streptococcus pneumoniae [6]) [µg/mL] | MIC (Streptococcus pneumoniae [7]) [µg/mL] | MIC (Staphylococcus aureus [8]) [µg/mL] | MIC (Staphylococcus aureus [9]) [µg/mL] | MIC (Streptococcus pneumoniae [10]) [µg/mL] | MIC (Streptococcus pneumoniae [11]) [µg/mL] | MIC (Staphylococcus aureus [12]) [µg/mL] | MIC (Streptococcus pneumoniae [13]) [µg/mL]
1 | CC(=O)OCC1=C(C(=O)O)N2C(=O)[C@@H](NC(=O)CN(OCc3ccccc3Cl)C(=O)Nc3ccccc3)C2SC1 (stereo partly specified) | 0.12 (≈ 0.204 µM) | 0.5 (≈ 0.849 µM) | 2 (≈ 3.4 µM) | 4 (≈ 6.79 µM) | 2 (≈ 3.4 µM) | 0.12 (≈ 0.204 µM) | 8 (≈ 13.6 µM) | 8 (≈ 13.6 µM) | 0.5 (≈ 0.849 µM) | 0.5 (≈ 0.849 µM) | 0.25 (≈ 0.424 µM) | 0.25 (≈ 0.424 µM) | 1 (≈ 1.7 µM) | 8 (≈ 13.6 µM)
2 | CC(=O)OCC1=C(C(=O)O)N2C(=O)[C@@H](NC(=O)CN(OCc3ccc(Cl)cc3)C(=O)c3ccccc3)C2SC1 (stereo partly specified) | 0.12 (≈ 0.209 µM) | 0.5 (≈ 0.871 µM) | 8 (≈ 13.9 µM) | 8 (≈ 13.9 µM) | 2 (≈ 3.48 µM) | 0.12 (≈ 0.209 µM) | 8 (≈ 13.9 µM) | 8 (≈ 13.9 µM) | 1 (≈ 1.74 µM) | 0.5 (≈ 0.871 µM) | 0.12 (≈ 0.209 µM) | 0.12 (≈ 0.209 µM) | 2 (≈ 3.48 µM) | 16 (≈ 27.9 µM)
3 | CC(=O)OCC1=C(C(=O)O)N2C(=O)[C@@H](NC(=O)CN(OCc3cccc(Cl)c3)C(=O)Nc3ccccc3)C2SC1 (stereo partly specified) | 0.12 (≈ 0.204 µM) | 0.5 (≈ 0.849 µM) | 2 (≈ 3.4 µM) | 2 (≈ 3.4 µM) | 1 (≈ 1.7 µM) | 0.12 (≈ 0.204 µM) | 4 (≈ 6.79 µM) | 4 (≈ 6.79 µM) | 0.5 (≈ 0.849 µM) | 0.5 (≈ 0.849 µM) | 0.12 (≈ 0.204 µM) | 0.06 (≈ 0.102 µM) | 1 (≈ 1.7 µM) | 4 (≈ 6.79 µM)
4 | CC(=O)OCC1=C(C(=O)O)N2C(=O)[C@@H](NC(=O)CN(OCc3ccc(Cl)cc3)C(=O)NCc3ccccc3)C2SC1 (stereo partly specified) | 0.25 (≈ 0.415 µM) | 0.5 (≈ 0.829 µM) | 2 (≈ 3.32 µM) | 4 (≈ 6.63 µM) | 1 (≈ 1.66 µM) | 0.12 (≈ 0.199 µM) | 8 (≈ 13.3 µM) | 8 (≈ 13.3 µM) | 0.5 (≈ 0.829 µM) | 1 (≈ 1.66 µM) | 0.5 (≈ 0.829 µM) | 0.25 (≈ 0.415 µM) | 1 (≈ 1.66 µM) | 32 (≈ 53.1 µM)
5 | CO/N=C(\C(=O)N[C@@H]1C(=O)N2C(C(=O)[O-])=C(C[n+]3cccc4c3CCC4)CS[C@H]12)c1csc(N)n1 [CEFPIROME] | 0.06 (≈ 0.117 µM) | 1 (≈ 1.94 µM) | 2 (≈ 3.89 µM) | < 0.5 | 2 (≈ 3.89 µM) | 0.03 (≈ 0.0583 µM) | 2 (≈ 3.89 µM) | 1 (≈ 1.94 µM) | 1 (≈ 1.94 µM) | 1 (≈ 1.94 µM) | 0.06 (≈ 0.117 µM) | 0.06 (≈ 0.117 µM) | 2 (≈ 3.89 µM) | < 0.5
6 | CC(=O)OCC1=C(C(=O)O)N2C(=O)[C@@H](NC(=O)CN(OCc3cccc(Cl)c3)C(=O)NCc3ccccc3)C2SC1 (stereo partly specified) | 0.25 (≈ 0.415 µM) | 1 (≈ 1.66 µM) | 2 (≈ 3.32 µM) | 4 (≈ 6.63 µM) | 1 (≈ 1.66 µM) | 0.25 (≈ 0.415 µM) | 8 (≈ 13.3 µM) | 8 (≈ 13.3 µM) | 0.5 (≈ 0.829 µM) | 1 (≈ 1.66 µM) | 0.5 (≈ 0.829 µM) | 0.25 (≈ 0.415 µM) | 2 (≈ 3.32 µM) | 32 (≈ 53.1 µM)
7 | CC(=O)OCC1=C(C(=O)O)N2C(=O)[C@@H](NC(=O)CN(OCc3ccccc3Cl)C(=O)NCc3ccccc3)C2SC1 (stereo partly specified) | 0.25 (≈ 0.415 µM) | 0.5 (≈ 0.829 µM) | 4 (≈ 6.63 µM) | 4 (≈ 6.63 µM) | 1 (≈ 1.66 µM) | 0.25 (≈ 0.415 µM) | 16 (≈ 26.5 µM) | 16 (≈ 26.5 µM) | 0.5 (≈ 0.829 µM) | 1 (≈ 1.66 µM) | 0.5 (≈ 0.829 µM) | 0.5 (≈ 0.829 µM) | 1 (≈ 1.66 µM) | 64 (≈ 106 µM)
8 | CO/N=C(\C(=O)N[C@@H]1C(=O)N2C(C(=O)O)=C(CSc3nc(=O)c(O)nn3C)CS[C@H]12)c1csc(N)n1 [CEFTRIAXONE] | 0.03 (≈ 0.0541 µM) | 2 (≈ 3.61 µM) | 4 (≈ 7.21 µM) | 1 (≈ 1.8 µM) | 4 (≈ 7.21 µM) | 0.06 (≈ 0.108 µM) | 4 (≈ 7.21 µM) | 2 (≈ 3.61 µM) | 2 (≈ 3.61 µM) | 4 (≈ 7.21 µM) | 0.03 (≈ 0.0541 µM) | 0.03 (≈ 0.0541 µM) | 4 (≈ 7.21 µM) | 1 (≈ 1.8 µM)
9 | CC(=O)OCC1=C(C(=O)O)N2C(=O)[C@@H](NC(=O)CN(OCc3ccc(Cl)cc3)C(=O)Nc3ccccc3)C2SC1 (stereo partly specified) | 0.06 (≈ 0.102 µM) | 0.5 (≈ 0.849 µM) | 4 (≈ 6.79 µM) | 4 (≈ 6.79 µM) | 1 (≈ 1.7 µM) | 0.06 (≈ 0.102 µM) | 8 (≈ 13.6 µM) | 4 (≈ 6.79 µM) | 0.5 (≈ 0.849 µM) | 0.5 (≈ 0.849 µM) | 0.25 (≈ 0.424 µM) | 0.12 (≈ 0.204 µM) | 1 (≈ 1.7 µM) | 16 (≈ 27.2 µM)
